What was measured:
[1] = test system: recombinant NL4-3 virus (nef section replaced with Renilla luciferase gene) in MT-2 cells; assay: HIV cell culture assay (antiviral activity, luciferase readout); type: cell-based; conditions: MT-2 cells infected for 4-5 days with recombinant NL4-3 luciferase virus
Method in brief: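 Serially diluted compounds were present throughout a 4-5 day infection of MT-2 cells by recombinant NL4-3 whose nef region partly encodes Renilla luciferase. Antiviral activity was taken from live-cell luciferase signal, with the 50% effective concentration fitted by the exponential median effect equation.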

[2] = Compound cytotoxicity, XTT-based colorimetric assay; type: cell-based; conditions: human, uninfected MT2 cells
Method in brief: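 XTT colorimetric read-out on day 4 gave CC50 values, using MT2 cells left uninfected but otherwise handled as in the antiviral assay.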

SMILES | EC50 ([1]; Renilla, NL43, Table 1) [nM] | CC50 at 4 days ([2]; Table 1, day 4, XTT) [nM] | EC50 ([1]; Renilla, NL43, Table 1a) [nM] | CC50 at 4 days ([2]; Table 1a, day 4, XTT) [nM] | EC50 ([1]; Table 1a) [nM]
Cn1nc(NS(C)(=O)=O)c2c(Cl)ccc(-n3c(C(Cc4cc(F)cc(F)c4)NC(=O)Cn4nc(C(F)F)c5c4C(F)(F)[C@@H]4C[C@H]54)nc4cccc(Cl)c4c3=O)c21 (mixture of isomers) [Example 22.1, N—((S)-1-(5-chloro-3-(4-chloro-1-methyl-3-(methylsulfonamido)-1H-indazol-7-yl)-4-oxo-3,4-dihydroquinazolin-2-yl)-2-(3,5-difluorophenyl)ethyl)-2-((3bS,4aR)-3-(difluoromethyl)-5,5-difluoro-3b,4,4a,5-tetrahydro-1H-cyclopropa[3,4]cyclopenta[1,2-c]pyrazol-1-yl)acetamide] | 31600 | > 1000 | – | – | –
COC(=O)c1cc(-c2cc3[nH]ncc3nc2[C@H](Cc2cc(F)cc(F)c2)NC(=O)Cn2nc(C(F)F)c3c2C(F)(F)[C@@H]2C[C@H]32)ccc1Cl [Example 10.9, Methyl 2-chloro-5-(5-((S)-1-(2-((3bS,4aR)-3-(difluoromethyl)-5,5-difluoro-3b,4,4a,5-tetrahydro-1H-cyclopropa[3,4]cyclopenta[1,2-c]pyrazol-1-yl)acetamido)-2-(3,5-difluorophenyl)ethyl)-1H-pyrazolo[4,3-b]pyridin-6-yl)benzoate] | 1080 | 8950 | – | – | –
Cn1nc(NS(C)(=O)=O)c2c(Cl)ccc(-n3c([C@H](Cc4cc(F)cc(F)c4)NC(=O)Cc4c[nH]c5ccc(F)cc45)nc4ncccc4c3=O)c21 [Example 51, N-[(1S)-1-[3-(4-chloro-3-methanesulfonamido-1-methyl-1H-indazol-7-yl)-4-oxo-3H,4H-pyrido[2,3-d]pyrimidin-2-yl]-2-(3,5-difluorophenyl)ethyl]-2-(5-fluoro-1H-indol-3-yl)acetamide] | – | – | 1.04 | > 1000 | –
Cn1nc(NS(C)(=O)=O)c2c(Cl)ccc(-c3cc4sc(N)nc4nc3C(Cc3cc(F)cc(F)c3)NC(=O)Cn3nc(C(F)F)c4c3C(F)(F)[C@@H]3C[C@H]43)c21 (mixture of isomers) [Example 194, N-(1-(2-amino-6-(4-chloro-1-methyl-3-(methylsulfonamido)-1H-indazol-7-yl)thiazolo[4,5-b]pyridin-5-yl)-2-(3,5-difluorophenyl)ethyl)-2-((3bS,4aR)-3-(difluoromethyl)-5,5-difluoro-3b,4,4a,5-tetrahydro-1H-cyclopropa[3,4]cyclopenta[1,2-c]pyrazol-1-yl)acetamide] | – | – | 1.9 | > 10000 | –
Cn1nc(NS(C)(=O)=O)c2c(Cl)ccc(-n3c([C@H](Cc4cc(F)cc(F)c4)NC(=O)Cn4nc(C(F)F)c5c4C(F)(F)[C@@H]4C[C@H]54)nc4cccc(F)c4c3=O)c21 (single isomer, unassigned) [Example 19] | 130 | > 8000 | – | – | –
Cn1nc(NS(C)(=O)=O)c2c(Cl)ccc(-n3c([C@H](Cc4cc(F)cc(F)c4)NC(=O)Cc4c[nH]c5ccc(O)cc45)nc4cc(CS(C)(=O)=O)ccc4c3=O)c21 [Example 203, (S)—N-(1-(3-(4-chloro-1-methyl-3-(methylsulfonamido)-1H-indazol-7-yl)-7-((methylsulfonyl)methyl)-4-oxo-3,4-dihydroquinazolin-2-yl)-2-(3,5-difluorophenyl)ethyl)-2-(5-hydroxy-1H-indol-3-yl)acetamide] | – | – | – | > 1000 | 166
COc1ccc2c(=O)n(-c3cccc4c(NS(C)(=O)=O)nn(C)c34)c([C@H](Cc3cc(F)cc(F)c3)NC(=O)Cn3nc(C(F)F)c4c3C(F)(F)[C@@H]3C[C@H]43)nc2c1 (single isomer, unassigned) [Example 80] | – | – | 0.389 | > 1000 | –
CC(C)c1ccc(-n2c([C@H](Cc3cc(F)cc(F)c3)NC(=O)Cn3nc(C(F)F)c4c3C(F)(F)[C@@H]3C[C@H]43)nc3cc(C#N)ccc3c2=O)cn1 [Example 163, N—((S)-1-(7-cyano-3-(6-isopropylpyridin-3-yl)-4-oxo-3,4-dihydroquinazolin-2-yl)-2-(3,5-difluorophenyl)ethyl)-2-((3bS,4aR)-3-(difluoromethyl)-5,5-difluoro-3b,4,4a,5-tetrahydro-1H-cyclopropa[3,4]cyclopenta[1,2-c]pyrazol-1-yl)acetamide] | – | – | 11.9 | 3980 | –
COc1ccc(-n2c([C@H](Cc3cc(F)cc(F)c3)NC(=O)Cn3nc(C(F)F)c4c3C(F)(F)[C@@H]3C[C@H]43)nc3ncccc3c2=O)cc1 [Example 9.1, 2-((3bS,4aR)-3-(difluoromethyl)-5,5-difluoro-3b,4,4a,5-tetrahydro-1H-cyclopropa[3,4]cyclopenta[1,2-c]pyrazol-1-yl)-N—((S)-2-(3,5-difluorophenyl)-1-(3-(4-methoxyphenyl)-4-oxo-3,4-dihydropyrido[2,3-d]pyrimidin-2-yl)ethyl)acetamide] | 6.1 | 8100 | – | – | –
O=C(Cn1nc(C(F)F)c2c1C(F)(F)[C@@H]1C[C@H]21)N[C@@H](Cc1cc(F)cc(F)c1)c1nc2cn[nH]c2cc1-c1ccc(F)c(C(=O)O)c1 [Example 10.25, 5-(5-((S)-1-(2-((3bS,4aR)-3-(difluoromethyl)-5,5-difluoro-3b,4,4a,5-tetrahydro-1H-cyclopropa[3,4]cyclopenta[1,2-c]pyrazol-1-yl)acetamido)-2-(3,5-difluorophenyl)ethyl)-1H-pyrazolo[4,3-b]pyridin-6-yl)-2-fluorobenzoic acid] | 580 | > 10000 | – | – | –
Cn1nc(NS(C)(=O)=O)c2c(Cl)ccc(-c3nc4ccccc4nc3[C@H](Cc3cc(F)cc(F)c3)NC(=O)Cn3nc(C(F)F)c4c3C(F)(F)[C@@H]3C[C@H]43)c21 [Example 154, N—((S)-1-(3-(4-chloro-1-methyl-3-(methylsulfonamido)-1H-indazol-7-yl)quinoxalin-2-yl)-2-(3,5-difluorophenyl)ethyl)-2-((3bS,4aR)-3-(difluoromethyl)-5,5-difluoro-3b,4,4a,5-tetrahydro-1H-cyclopropa[3,4]cyclopenta[1,2-c]pyrazol-1-yl)acetamide] | – | – | 0.43 | > 10000 | –
O=C(Cn1nc(C(F)F)c2c1C(F)(F)[C@@H]1C[C@H]21)N[C@@H](Cc1cc(F)cc(F)c1)c1nc2ncccc2c(=O)n1-c1ccc(OC(F)F)cc1 [Example 30, N-[(1S)-1-{3-[4-(difluoromethoxy)phenyl]-4-oxo-3H,4H-pyrido[2,3-d]pyrimidin-2-yl}-2-(3,5-difluorophenyl)ethyl]-2-[(2S,4R)-9-(difluoromethyl)-5,5-difluoro-7,8-diazatricyclo[4.3.0.0^2,4]nona-1(6),8-dien-7-yl]acetamide] | – | – | 5.03 | 3160 | –
O=C(Cn1nc(C(F)F)c2c1C(F)(F)[C@@H]1C[C@H]21)NC(Cc1cc(F)cc(F)c1)c1nc2ncccc2c(=O)n1-c1ccc(Cl)cc1 (stereo partly drawn) [Example 123, N-(1-(3-(4-chlorophenyl)-4-oxo-3,4-dihydropyrido[2,3-d]pyrimidin-2-yl)-2-(3,5-difluorophenyl)ethyl)-2-((3bS,4aR)-3-(difluoromethyl)-5,5-difluoro-3b,4,4a,5-tetrahydro-1H-cyclopropa[3,4]cyclopenta[1,2-c]pyrazol-1-yl)acetamide] | – | – | 408 | > 1000 | –
CNC(=O)c1cc(-c2cc3[nH]ncc3nc2[C@H](Cc2cc(F)cc(F)c2)NC(=O)Cn2nc(C(F)F)c3c2C(F)(F)[C@@H]2C[C@H]32)ccc1F [Example 10.7, 5-(5-((S)-1-(2-((3bS,4aR)-3-(difluoromethyl)-5,5-difluoro-3b,4,4a,5-tetrahydro-1H-cyclopropa[3,4]cyclopenta[1,2-c]pyrazol-1-yl)acetamido)-2-(3,5-difluorophenyl)ethyl)-1H-pyrazolo[4,3-b]pyridin-6-yl)-2-fluoro-N-methylbenzamide] | 51 | > 10000 | – | – | –
CC(C)(C)c1ccc2c(=O)n(-c3ccc(Cl)c4c(NS(=O)(=O)C5CC5)nn(CC(F)F)c34)c([C@H](Cc3cc(F)cc(F)c3)NC(=O)Cn3nc(C(F)F)c4c3C(F)(F)[C@@H]3C[C@H]43)nc2c1 [Example 218, N—((S)-1-(7-(tert-Butyl)-3-(4-chloro-3-(cyclopropanesulfonamido)-1-(2,2-difluoroethyl)-1H-indazol-7-yl)-4-oxo-3,4-dihydroquinazolin-2-yl)-2-(3,5-difluorophenyl)ethyl)-2-((3bS,4aR)-3-(difluoromethyl)-5,5-difluoro-3b,4,4a,5-tetrahydro-1H-cyclopropa[3,4]cyclopenta[1,2-c]pyrazol-1-yl)acetamide] | – | – | 0.73 | > 1000 | –
Cn1nc(NS(C)(=O)=O)c2c(Cl)ccc(-c3cc4cc[nH]c4nc3C(Cc3cc(F)cc(F)c3)NC(=O)Cn3nc(C(F)F)c4c3C(F)(F)[C@@H]3C[C@H]43)c21 (single isomer, unassigned) [Example 83] | – | – | – | > 10000 | 1.02
O=C(Cn1nc(C(F)F)c2c1C(F)(F)[C@@H]1C[C@H]21)N[C@@H](Cc1cc(F)cc(F)c1)c1nc2cn[nH]c2cc1-c1ccc(Cl)c(C(=O)O)c1 [Example 10.11, 2-Chloro-5-(5-((S)-1-(2-((3bS,4aR)-3-(difluoromethyl)-5,5-difluoro-3b,4,4a,5-tetrahydro-1H-cyclopropa[3,4]cyclopenta[1,2-c]pyrazol-1-yl)acetamido)-2-(3,5-difluorophenyl)ethyl)-1H-pyrazolo[4,3-b]pyridin-6-yl)benzoic acid] | 810 | > 10000 | – | – | –
O=C(Cn1nc(C(F)F)c2c1C(F)(F)[C@@H]1C[C@H]21)NC(Cc1cc(F)cc(F)c1)c1nc2cn[nH]c2cc1-c1ccc(C2CC2)cc1 (single isomer, unassigned) [Example 3.11] | 670 | 4200 | – | – | –

From patent publication US10954252B1, “Inhibitors of human immunodeficiency virus replication” (ViiV HEALTHCARE UK (NO.5) LIMITED, priority 2017, dated 2021)
